This is an account of results in patent US9815796B2 (Merck Sharp & Dohme Corp., priority 2013, dated 2017).

Structures are written as SMILES. Where two headings read alike, the source gives them in different places.

Data set [1] relates to other PDE isoforms. The conditions noted are these: reported in Brandon et al., Annual Reports in Medicinal Chemistry 42: 4-5, 2007; cited from earlier work.
The conditions of data set [2]: reported in Brandon et al., Annual Reports in Medicinal Chemistry 42: 4-5, 2007; cited from earlier work.
Data set [3] has as its target Rhesus PDE2A3 (Macaca mulatta, UniProt B3VTJ2). Kind of data set: PDE2 fluorescence polarization (IMAP FP) inhibition assay, rhesus enzyme. The format is biochemical, rhesus macaque. In short, it runs like this: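 IMAP FP (mP from parallel and perpendicular fluorescence against substrate-only control) was read ≥1 h after adding binding reagent. The preceding 60 min room-temperature reaction contained FAM-cAMP (50 nM) and cGMP (1 uM) in pH 7.2 Tris buffer with MgCl2 and DTT. Enzyme was supernatant of sonicated AD293 cells expressing rhesus PDE2A3; compounds were 3-fold titrated, DMSO 1% final.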
(Polarisation of emitted light reports the rotation of a fluorescent probe.)

For data set [4], the target named is human PDE2A1 (Homo sapiens (Human), UniProt O00408). Kind of data set: IMAP FP PDE selectivity panel, human PDE2A1. The format is biochemical. In short, it runs like this: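 IMAP FP format: substrate 50 nM FAM-cAMP plus 1000 nM cGMP, enzyme (insect-cell GST-tagged human PDE2A1) at ~20% conversion, 60 min reaction at room temperature. Apparent inhibition constants calculated from parallel/perpendicular fluorescence with KM 10,000 nM.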
Chain of human PDE2A1 (O00408 other isoform, or with tags, fused parts or gaps): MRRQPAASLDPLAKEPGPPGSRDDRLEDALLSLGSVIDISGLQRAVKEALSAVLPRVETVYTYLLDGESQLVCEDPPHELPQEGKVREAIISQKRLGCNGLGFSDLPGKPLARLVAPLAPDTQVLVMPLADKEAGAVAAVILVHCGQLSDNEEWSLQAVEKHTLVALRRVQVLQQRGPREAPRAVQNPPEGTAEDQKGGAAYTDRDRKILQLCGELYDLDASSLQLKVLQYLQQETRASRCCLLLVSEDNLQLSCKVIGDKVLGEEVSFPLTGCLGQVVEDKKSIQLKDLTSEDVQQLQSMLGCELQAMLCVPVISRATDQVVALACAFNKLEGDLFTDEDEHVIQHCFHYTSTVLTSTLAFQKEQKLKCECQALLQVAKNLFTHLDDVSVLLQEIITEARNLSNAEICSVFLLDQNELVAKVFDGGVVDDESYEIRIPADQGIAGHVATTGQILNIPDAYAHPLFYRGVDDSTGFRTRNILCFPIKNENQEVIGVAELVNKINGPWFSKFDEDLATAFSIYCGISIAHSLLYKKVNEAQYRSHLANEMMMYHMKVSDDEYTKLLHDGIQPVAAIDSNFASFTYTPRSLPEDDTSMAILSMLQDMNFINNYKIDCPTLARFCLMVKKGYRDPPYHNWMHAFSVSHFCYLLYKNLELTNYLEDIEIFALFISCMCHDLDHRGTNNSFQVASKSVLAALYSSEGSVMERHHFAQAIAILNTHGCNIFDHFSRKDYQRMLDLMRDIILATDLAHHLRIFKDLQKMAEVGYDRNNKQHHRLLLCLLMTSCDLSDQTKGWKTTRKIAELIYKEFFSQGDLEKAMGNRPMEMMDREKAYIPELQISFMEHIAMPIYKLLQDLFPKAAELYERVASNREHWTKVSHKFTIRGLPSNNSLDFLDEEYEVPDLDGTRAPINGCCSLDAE

The mark [5] stands for this setting: Rhesus PDE2, Lab B, read-out: Rhesus PDE2 Ki (nM) - Lab B.
Where [6] appears, read: Human PDE2, Lab B, read-out: Human PDE2 Ki (nM) - Lab B.
Setting [7] is: Rhesus PDE2, Lab A, read-out: Rhesus PDE2 Ki (nM) - Lab A.
[8] abbreviates: Human PDE2, Lab A, read-out: Human PDE2 Ki (nM) - Lab A.

Chain of Rhesus PDE2A3 (B3VTJ2 1-941): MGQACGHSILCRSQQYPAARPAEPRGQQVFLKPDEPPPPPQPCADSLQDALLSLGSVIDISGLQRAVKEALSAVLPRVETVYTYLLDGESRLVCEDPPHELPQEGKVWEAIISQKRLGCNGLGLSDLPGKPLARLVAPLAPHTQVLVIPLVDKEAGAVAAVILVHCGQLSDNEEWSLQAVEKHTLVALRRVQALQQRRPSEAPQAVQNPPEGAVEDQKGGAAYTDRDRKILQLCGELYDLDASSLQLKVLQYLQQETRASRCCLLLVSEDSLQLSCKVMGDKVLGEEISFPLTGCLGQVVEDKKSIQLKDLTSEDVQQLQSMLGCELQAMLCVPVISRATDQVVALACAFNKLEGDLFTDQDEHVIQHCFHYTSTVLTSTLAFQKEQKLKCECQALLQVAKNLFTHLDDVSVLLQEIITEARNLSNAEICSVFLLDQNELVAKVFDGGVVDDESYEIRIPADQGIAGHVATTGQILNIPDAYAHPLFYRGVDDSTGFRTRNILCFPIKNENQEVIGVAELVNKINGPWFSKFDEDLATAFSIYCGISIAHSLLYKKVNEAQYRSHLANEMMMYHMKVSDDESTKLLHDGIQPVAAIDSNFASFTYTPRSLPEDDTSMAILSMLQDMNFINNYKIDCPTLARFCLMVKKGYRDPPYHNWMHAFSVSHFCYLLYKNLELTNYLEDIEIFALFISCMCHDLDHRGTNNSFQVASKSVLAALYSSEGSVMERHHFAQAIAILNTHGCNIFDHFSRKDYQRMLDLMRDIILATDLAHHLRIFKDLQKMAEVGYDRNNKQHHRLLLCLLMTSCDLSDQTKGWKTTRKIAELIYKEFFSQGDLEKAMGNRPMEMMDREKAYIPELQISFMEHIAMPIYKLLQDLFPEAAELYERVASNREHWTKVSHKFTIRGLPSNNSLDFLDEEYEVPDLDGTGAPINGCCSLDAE

As for `COc1ccc(Cc2nn3c([C@@H](CCCc4ccccc4)[C@@H](C)O)nc(C)c3c(=O)[nH]2)cc1OC` [BAY 60-7550], the “potency at other PDE isoforms” value in data set [1] is given as “significant potency at other PDE isoforms”. Besides, the brain penetration entry in data set [2] was “limited brain penetration”.

As a reminder, the Ki is the equilibrium dissociation constant of an inhibitor or competing ligand from its target. `CC[C@@H](NC(=O)c1cc(=O)[nH]c(-c2ccccc2)n1)c1ccc(S(F)(F)(F)(F)F)cc1` [Example 386, 6-oxo-N-{(1R)-1-[4-(pentafluoro-λ^6-sulfanyl)phenyl]propyl}-2-phenyl-1,6-dihydropyrimidine-4-carboxamide]: the Ki in data set [3] (setting [5]) turned out to be 8.1 nM; in data set [4] (setting [6]) it was 6.5 nM.

As for `C[C@@H](NC(=O)c1cc(=O)[nH]c(-c2ccccc2)n1)c1ccc(C(F)(F)F)cc1F` [Example 150, N-{(1R)-1-[2-fluoro-4-(trifluoromethyl)phenyl]ethyl}-6-oxo-2-phenyl-1,6-dihydropyrimidine-4-carboxamide], the Ki in data set [3] (setting [7]) came out at 29 nM; in data set [4] (setting [8]), 15 nM.

As to `CC(C)[C@@H](NC(=O)c1cc(=O)[nH]c(-c2ncccn2)n1)c1ccc(C(F)(F)F)cc1` [Example 73, N-{(1R)-2-methyl-1-[4-(trifluoromethyl)phenyl]propyl}-6-oxo-1,6-dihydro-2,2′-bipyrimidine-4-carboxamide], the Ki was 4.1 nM in data set [3] (setting [7]), 4.9 nM in data set [3] (setting [5]) and 5.3 nM in data set [4] (setting [6]).

`CC[C@@H](NC(=O)c1cc(=O)[nH]c(Cc2ccc(OC)c(F)c2)n1)c1ccc(OC(F)(F)F)cc1` [Example 529, 2-(3-fluoro-4-methoxybenzyl)-6-oxo-N-{(1R)-1-[4-(trifluoromethoxy)phenyl]propyl}-1,6-dihydropyrimidine-4-carboxamide]: the Ki in data set [3] (setting [5]) was 2.2 nM; in data set [4] (setting [6]) it was 2 nM.

Turning to `COc1ccc(Cc2nc(C(=O)N[C@@H](c3ccc(OC(F)(F)F)cc3)C3CC3)cc(=O)[nH]2)cc1F` [Example 524, N-{(R)-cyclopropyl[4-(trifluoromethoxy)phenyl]methyl}-2-(3-fluoro-4-methoxybenzyl)-6-oxo-1,6-dihydropyrimidine-4-carboxamide], the Ki in data set [3] (setting [5]) and in data set [4] (setting [6]) was 2.1 nM throughout.

For `COc1ccc(Cc2nc(C(=O)N[C@@H](c3ccc(SC(F)(F)F)cc3)C(C)(C)C)cc(=O)[nH]2)cc1` [Example 465, N-[(1R)-2,2-dimethyl-1-{4-[(trifluoromethyl)sulfanyl]phenyl}propyl]-2-(4-methoxybenzyl)-6-oxo-1,6-dihydropyrimidine-4-carboxamide], the Ki in data set [3] (setting [5]) and in data set [4] (setting [6]) was 0.62 nM each time.

With `Cc1nc(C(=O)N[C@@H](c2ccc(C(F)(F)F)cc2)C(C)(C)C)cc(=O)[nH]1` [Example 249, N-{(1R)-2,2-dimethyl-1-[4-(trifluoromethyl)phenyl]propyl}-2-methyl-6-oxo-1,6-dihydropyrimidine-4-carboxamide], the Ki in data set [3] (setting [7]) turned out to be 2 nM; in data set [3] (setting [5]), 4.3 nM; in data set [4] (setting [6]), 4.1 nM.

Regarding `Cc1nc(C(=O)N[C@@H](c2ccc(OC(F)F)cc2)C2(C)CC2)cc(=O)[nH]1` [Example 425, N-[(R)-[4-(difluoromethoxy)phenyl](1-methylcyclopropyl)methyl]-2-methyl-6-oxo-1,6-dihydropyrimidine-4-carboxamide], the values for the Ki in data set [3] (setting [5]) and in data set [4] (setting [6]) were 29 nM and 30 nM, respectively.

As for `CC[C@@H](NC(=O)c1cc(=O)[nH]c(Cc2ccc(OC)c(F)c2)n1)c1ccc(SC(F)(F)F)c(F)c1` [Example 519, 2-(3-fluoro-4-methoxybenzyl)-N-[(1R)-1-{3-fluoro-4-[(trifluoromethyl)sulfanyl]phenyl}propyl]-6-oxo-1,6-dihydropyrimidine-4-carboxamide], the Ki was determined as 1.7 nM in data set [3] (setting [5]) and 2 nM in data set [4] (setting [6]).

Turning to `O=C(NC1(c2ccc(C(F)(F)F)cc2)CCCC1)c1cc(=O)[nH]c(C2CC2)n1` [Example 197, 2-cyclopropyl-6-oxo-N-{1-[4-(trifluoromethyl)phenyl]cyclopentyl}-1,6-dihydropyrimidine-4-carboxamide], the Ki in data set [3] (setting [7]) stood at 62 nM; in data set [4] (setting [8]) it was 29 nM.

On to `COc1cc(CNC(=O)c2cc(=O)[nH]c(-c3ccccc3)n2)cc(OC)c1OC` [Example 338, 6-oxo-2-phenyl-N-(3,4,5-trimethoxybenzyl)-1,6-dihydropyrimidine-4-carboxamide], for which the Ki is 29 nM in data set [3] (setting [7]), 71 nM in data set [3] (setting [5]) and 65 nM in data set [4] (setting [6]).

As to `COc1ccc2cc(C(C)NC(=O)c3cc(=O)[nH]c(-c4ccccc4)n3)ccc2c1` (stereo not drawn) [Example 378, N-[1-(6-methoxynaphthalen-2-yl)ethyl]-6-oxo-2-phenyl-1,6-dihydropyrimidine-4-carboxamide], the results for the Ki in data set [3] (setting [7]), in data set [3] (setting [5]) and in data set [4] (setting [6]) were 26 nM, 41 nM and 41 nM, respectively.

Turning to `Cc1nc(C(=O)NC(C)c2ccc3cc[nH]c3c2)cc(=O)[nH]1` (stereo not drawn) [Example 303, N-(1-(1H-indol-6-yl)ethyl)-2-methyl-6-oxo-1,6-dihydropyrimidine-4-carboxamide], the Ki in data set [3] (setting [7]) came to 208 nM; in data set [4] (setting [8]) it was 215 nM.

As to `Cc1nc(C(=O)N[C@@H](c2ccc(C(F)(F)F)cc2)[C@@H](C)O)cc(=O)[nH]1` [Example 65, N-((1S,2R)-2-hydroxy-1-(4-(trifluoromethyl)phenyl)propyl)-2-methyl-6-oxo-1,6-dihydropyrimidine-4-carboxamide], the Ki in data set [3] (setting [7]) stood at 38 nM; in data set [4] (setting [8]), 18 nM.

As to `CC(C)(C)[C@@H](NC(=O)c1cc(=O)[nH]c(C2CC2)n1)c1ccc(OC(F)F)cc1` [Example 436, 2-cyclopropyl-N-{(1R)-1-[4-(difluoromethoxy)phenyl]-2,2-dimethylpropyl}-6-oxo-1,6-dihydropyrimidine-4-carboxamide], the inhibition constant (Ki) in data set [3] (setting [5]) was found to be 3.5 nM; in data set [4] (setting [6]), 3.2 nM.

`O=C(N[C@@H](c1ccc(SC(F)(F)F)c(F)c1)C1CC1)c1cc(=O)[nH]c(-c2ncccn2)n1` [Example 452, N-[(R)-cyclopropyl{3-fluoro-4-[(trifluoromethyl)sulfanyl]phenyl}meth-yl]-6-oxo-1,6-dihydro-2,2′-bipyrimidine-4-carboxamide]: the Ki amounted to 9.8 nM in data set [3] (setting [5]) and 9.3 nM in data set [4] (setting [6]).

`CC[C@@H](NC(=O)c1cc(=O)[nH]c(COC)n1)c1ccc(OC(F)(F)F)cc1` [Example 119, 2-(methoxymethyl)-6-oxo-N-{(1R)-1-[4-(trifluoromethoxy)phenyl]propyl}-1,6-dihydropyrimidine-4-carboxamide]: the results for the Ki in data set [3] (setting [7]), in data set [3] (setting [5]) and in data set [4] (setting [8]) were 74 nM, 53 nM and 17 nM, respectively.

With `CC[C@@H](NC(=O)c1cc(=O)[nH]c(C2CC2)n1)c1ccc(SC(F)(F)F)cc1` [Example 236, 2-cyclopropyl-6-oxo-N-[(1R)-1-{4-[(trifluoromethyl)sulfanyl]phenyl}propyl]-1,6-dihydropyrimidine-4-carboxamide], the Ki in data set [3] (setting [7]) stood at 4.3 nM; in data set [4] (setting [8]), 5.5 nM.

In the case of `CC(C)(NC(=O)c1cc(=O)[nH]c(-c2ccccc2)n1)c1ccc(SC(F)(F)F)cc1` [Example 186, N-(1-methyl-1-{4-[(trifluoromethyl)sulfanyl]phenyl}ethyl)-6-oxo-2-phenyl-1,6-dihydropyrimidine-4-carboxamide], the Ki worked out at 60 nM in data set [3] (setting [7]) and 62 nM in data set [4] (setting [8]).

For the compound `C[C@@H](NC(=O)c1cc(=O)[nH]c(-c2ncccn2)n1)c1ccc(C(F)(F)F)cc1` [Example 291, 6-oxo-N-{(1R)-1-[4-(trifluoromethyl)phenyl]ethyl}-1,6-dihydro-2,2′-bipyrimidine-4-carboxamide], the inhibitory constant (Ki) came out at 11 nM in data set [3] (setting [7]) and 10 nM in data set [4] (setting [8]).

Consider `CC[C@@H](NC(=O)c1cc(=O)[nH]c(C)n1)c1ccc(S(F)(F)(F)(F)F)cc1` [Example 51, 2-methyl-6-oxo-N-{(1R)-1-[4-(pentafluoro-λ^6-sulfanyl)phenyl]propyl}-1,6-dihydropyrimidine-4-carboxamide], for which the Ki in data set [3] (setting [7]) is 18 nM; in data set [3] (setting [5]) it was 18 nM; in data set [4] (setting [8]), around 6.1 nM; in data set [4] (setting [6]) it was 20 nM.
